Earlier results, collected in patent US9238007B2, “Method for the production of a medicament containing tadalafil” (RATIOPHARM GMBH, priority 2007, dated 2016).

Conditions: according to WO 01/08687

CN1CC(=O)N2[C@H](c3ccc4c(c3)OCO4)c3[nH]c4ccccc4c3C[C@@H]2C1=O [Tadalafil, (6R,12aR)-6-(1,3-benzodioxol-5-yl)-2-methyl-1,2,3,4,6,7,12,12a-octahydropyrazino [2,1 :6,1]pyrido[3,4-b]indole-1,4-dione]
solubility in water: about 2 μg/ml
